Assay results taken from ChEMBL document CHEMBL1151292, “Antineoplastic activity and cytotoxicity of flavones, isoflavones, and flavanones” (1979).
In brackets after ≈: the same amount, converted by molar mass. Activity calls are given as the source filed them. No rule for the calls is given here.

Columns and labels:
KB = experiment: Cytotoxicity against human KB cells; assay type: functional; settings: read-out: ED50 (the source's name)
L1210 = experiment: In vivo antitumor activity against mouse L1210 cells; assay type: functional, organism-based
CA-755 = experiment: In vivo antitumor activity against mouse CA-755 cells; assay type: functional, organism-based
CCRF S-180 = experiment: In vivo antitumor activity against mouse S180 cells; assay type: functional, organism-based

## COc1c(O)cc2oc(-c3ccc(O)cc3)cc(=O)c2c1O [HISPIDULIN]
KB
  EC50: 22 mg/L (≈ 73.3 µM)

## COc1cc(-c2cc(=O)c3c(C)cc(O)cc3o2)cc(OC)c1OC
L1210
  Activity: inactive

## COc1cc(OC)c2c(=O)c(OC)c(-c3ccc(OC)c(OC)c3)oc2c1
KB
  EC50: 25 mg/L (≈ 67.1 µM)

## O=C1CC(c2cccc(Cl)c2)Oc2ccccc21 (stereo not drawn)
CA-755
  Activity: Active
CCRF S-180
  Activity: inactive
L1210
  Activity: inactive

## COc1cc(O)c2c(=O)cc(-c3ccc(OC)c(O)c3)oc2c1
KB
  EC50: 19 mg/L (≈ 60.5 µM)

## O=C1c2cc(Cl)ccc2OC(Cl)(c2ccc(Cl)cc2)C1Cl (stereo not drawn)
CCRF S-180
  Activity: inactive

## O=c1c(O)c(-c2ccc(O)c(O)c2)oc2cc(O[C@@H]3O[C@H](CO)[C@@H](O)[C@H](O)[C@H]3O)cc(O)c12 [QUERCIMERITRIN]
KB
  EC50: 28 mg/L (≈ 60.3 µM)

## CS(=O)(=O)Nc1c(-c2ccccc2)oc2ccccc2c1=O
CCRF S-180
  Activity: inactive
KB
  EC50: 10 mg/L (≈ 31.7 µM)

## COc1cc(O)c2c(=O)c(OC)c(-c3ccc(O)c(OC)c3)oc2c1
L1210
  Activity: inactive

## COc1ccc(-c2oc3cc(O)c(O)c(O)c3c(=O)c2O)cc1OC
KB
  EC50: 27 mg/L (≈ 78 µM)

## COc1ccc(-c2cc(=O)c3ccc(O)cc3o2)cc1OC
L1210
  Activity: inactive

## C[C@@H]1O[C@@H](OC[C@H]2O[C@@H](Oc3c(-c4ccc(O)c(O)c4)oc4c(O)cc(O)cc4c3=O)[C@H](O)[C@@H](O)[C@@H]2O)[C@H](O)[C@H](O)[C@H]1O
L1210
  Activity: inactive

## COc1cc(-c2cc(=O)c3c(O)cc(C)cc3o2)cc(OC)c1OC
L1210
  Activity: inactive

## COc1ccc(C2Oc3ccccc3C(=O)C2N)cc1.Cl (stereo not drawn)
CCRF S-180
  Activity: inactive
KB
  EC50: > 100 mg/L

## COc1cc2oc(-c3ccc(O)cc3)c(O[C@@H]3O[C@@H](C)[C@H](O)[C@@H](O)[C@H]3O)c(=O)c2c(O)c1OC
L1210
  Activity: inactive

## COc1cc2c(=O)cc(-c3ccc(OC)c(OC)c3)oc2cc1O
KB
  EC50: 45 mg/L (≈ 137 µM)

## CS(=O)(=O)NC1C(=O)c2ccccc2OC1c1ccccc1 (stereo not drawn)
CCRF S-180
  Activity: inactive
KB
  EC50: 10 mg/L (≈ 31.5 µM)
L1210
  Activity: inactive

## COc1ccc(C2(OC)Oc3cc(OC)ccc3C(=O)C2(O)O)cc1 (stereo not drawn)
KB
  EC50: 2.8 mg/L (≈ 8.08 µM)

## O=C1C(=O)C(c2ccccc2)Oc2ccccc21 (stereo not drawn)
L1210
  Activity: inactive

## COc1cc(O)c2c(c1)OC(c1ccc(O)cc1)CC2=O (stereo not drawn)
KB
  EC50: 13 mg/L (≈ 45.4 µM)

## CC(=O)Oc1ccc2c(=O)c(-c3ccccc3)c(C)oc2c1
L1210
  Activity: inactive

## Cc1ccc(-c2oc3ccccc3c(=O)c2O)cc1
L1210
  Activity: inactive

## COc1ccc(-c2oc3ccccc3c(=O)c2O)cc1
L1210
  Activity: inactive

## COc1ccc(-c2oc3cc(O)cc(O)c3c(=O)c2OC)cc1OC
L1210
  Activity: inactive

## C[C@@H]1O[C@@H](OC[C@H]2O[C@@H](Oc3ccc4c(=O)c(-c5ccc6c(c5)OCO6)coc4c3)[C@H](O)[C@@H](O)[C@@H]2O)[C@H](O)[C@@H](O)[C@H]1O
L1210
  Activity: inactive

## CC(=O)Oc1cc(OC(C)=O)c2c(=O)c(OC(C)=O)c(-c3ccc(OC(C)=O)c(OC(C)=O)c3)oc2c1
L1210
  Activity: inactive

## O=c1c(O)c(-c2cc(O)c(O)c(O)c2)oc2cc(O)ccc12 [ROBINETIN]
KB
  EC50: 25 mg/L (≈ 82.7 µM)

## COc1ccc(-c2oc3cc(CC=C(C)C)cc(O)c3c(=O)c2OC)cc1OC
L1210
  Activity: inactive

## O=c1c(Cl)c(-c2ccccc2O)oc2ccccc12
KB
  EC50: 22 mg/L (≈ 80.7 µM)

## COc1cc(C2Oc3cc(OC)c(OC)c(O)c3C(=O)C2OC)ccc1O (stereo not drawn)
L1210
  Activity: inactive

## O=c1cc(-c2ccccc2)oc2c(O)c(O)cc(O)c12
L1210
  Activity: inactive

## CC(=O)c1c(O)cc(O)cc1-c1cc(=O)c2c(O)ccc(C(C)=O)c2o1
L1210
  Activity: inactive

## COc1ccc(-c2coc3cc(O)cc(O)c3c2=O)cc1
L1210
  Activity: inactive

## CCOc1ccc(-c2cc(=O)c3c(OC)c(OC)c(OC)c(OC)c3o2)cc1
CCRF S-180
  Activity: inactive
KB
  EC50: 30 mg/L (≈ 77.6 µM)
L1210
  Activity: inactive

## COc1ccc(-c2oc3cc(O)cc(O)c3c(=O)c2O)cc1 [KAEMPFERIDE]
KB
  EC50: 20 mg/L (≈ 66.6 µM)

## O=c1c(O)c(-c2ccc(Cl)cc2)oc2cc(O)ccc12
CCRF S-180
  Activity: inactive
L1210
  Activity: inactive

## O=C1C[C@@H](c2ccc(O)cc2)Oc2cc(O)cc(O)c21
CCRF S-180
  Activity: inactive
L1210
  Activity: inactive

## COc1ccc2c(=O)c(O)c(-c3ccc(OC)c(OC)c3)oc2c1
L1210
  Activity: inactive

## COc1ccc(-c2cc(=O)c3c(O)cc(O)cc3o2)cc1OC
L1210
  Activity: inactive

## COC1(O)C(=O)c2ccccc2OC1(OC)c1ccc(Cl)cc1 (stereo not drawn)
L1210
  Activity: inactive

## COc1ccc(-c2cc(=O)c3c(C)cc(O)cc3o2)cc1OC
L1210
  Activity: inactive

## COc1ccc(-c2cc(=O)c3ccc(O)cc3o2)cc1
L1210
  Activity: inactive

## O=C1c2ccccc2OC(c2ccccc2)C1Cl (stereo not drawn)
CA-755
  Activity: inactive
CCRF S-180
  Activity: inactive

## O=c1cc(-c2ccccc2)oc2c(F)cc(F)cc12
CCRF S-180
  Activity: inactive
KB
  EC50: 15 mg/L (≈ 58.1 µM)
L1210
  Activity: inactive

## COc1cc(-c2cc(=O)c3ccc(O)cc3o2)cc(OC)c1OC
L1210
  Activity: inactive
